Where a name gives a salt, the structure may show the parent alone.
Molecular target: T1, PI3Kα H1047R (T47D cells) (Homo sapiens, UniProt P42336, H1047R)
T1 construct: endogenous in cells; host or cells: T47D cells
Experiment: PI3Kα cellular assay: pAKT HTRF in T47D cells after EGF stimulation
Type: cell-based
Settings: for IC50: T47D cells (PI3Kα H1047R), pAKT S473 HTRF, 1 hr compound, 20 ng/ml EGF 10 min
Procedure, shortened: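 pAKT read by HTRF in lysates of EGF-stimulated (20 ng/mL, 10 min) T47D H1047R cells. Before stimulation, serum-starved cells (16 h) received compound for 1 h at 37 °C, dosed from 10,000 nM down to 0.5 nM in 3-fold steps.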

T1 sequence (P42336 whole entry H1047R): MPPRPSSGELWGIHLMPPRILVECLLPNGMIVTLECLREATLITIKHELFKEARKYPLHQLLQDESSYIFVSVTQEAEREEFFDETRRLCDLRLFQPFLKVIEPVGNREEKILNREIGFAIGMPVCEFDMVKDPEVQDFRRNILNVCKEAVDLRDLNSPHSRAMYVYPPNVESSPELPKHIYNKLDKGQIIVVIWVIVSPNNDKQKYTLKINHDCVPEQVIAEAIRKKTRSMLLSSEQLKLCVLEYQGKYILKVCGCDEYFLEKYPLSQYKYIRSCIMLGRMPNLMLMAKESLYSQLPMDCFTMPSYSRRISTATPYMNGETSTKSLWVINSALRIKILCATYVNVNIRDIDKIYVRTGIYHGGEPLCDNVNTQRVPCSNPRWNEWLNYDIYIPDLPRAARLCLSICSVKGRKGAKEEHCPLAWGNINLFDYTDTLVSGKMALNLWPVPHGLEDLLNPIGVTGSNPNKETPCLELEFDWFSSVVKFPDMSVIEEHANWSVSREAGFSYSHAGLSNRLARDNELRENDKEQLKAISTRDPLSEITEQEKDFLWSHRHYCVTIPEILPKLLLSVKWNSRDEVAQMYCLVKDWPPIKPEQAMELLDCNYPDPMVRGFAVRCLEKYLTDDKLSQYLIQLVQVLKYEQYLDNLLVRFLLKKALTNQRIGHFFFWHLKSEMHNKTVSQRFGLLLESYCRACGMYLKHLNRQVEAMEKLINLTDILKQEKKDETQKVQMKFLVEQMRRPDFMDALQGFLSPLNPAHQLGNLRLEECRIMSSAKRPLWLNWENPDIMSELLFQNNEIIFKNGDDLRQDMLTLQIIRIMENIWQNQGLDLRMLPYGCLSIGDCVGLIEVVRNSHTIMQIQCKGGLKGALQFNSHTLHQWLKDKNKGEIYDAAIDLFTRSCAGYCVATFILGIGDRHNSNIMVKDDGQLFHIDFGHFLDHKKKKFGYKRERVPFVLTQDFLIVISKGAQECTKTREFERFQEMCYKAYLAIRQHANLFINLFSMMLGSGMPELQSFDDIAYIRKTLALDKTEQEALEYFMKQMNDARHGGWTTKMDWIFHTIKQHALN
T1 sequence (P27986 whole entry partner): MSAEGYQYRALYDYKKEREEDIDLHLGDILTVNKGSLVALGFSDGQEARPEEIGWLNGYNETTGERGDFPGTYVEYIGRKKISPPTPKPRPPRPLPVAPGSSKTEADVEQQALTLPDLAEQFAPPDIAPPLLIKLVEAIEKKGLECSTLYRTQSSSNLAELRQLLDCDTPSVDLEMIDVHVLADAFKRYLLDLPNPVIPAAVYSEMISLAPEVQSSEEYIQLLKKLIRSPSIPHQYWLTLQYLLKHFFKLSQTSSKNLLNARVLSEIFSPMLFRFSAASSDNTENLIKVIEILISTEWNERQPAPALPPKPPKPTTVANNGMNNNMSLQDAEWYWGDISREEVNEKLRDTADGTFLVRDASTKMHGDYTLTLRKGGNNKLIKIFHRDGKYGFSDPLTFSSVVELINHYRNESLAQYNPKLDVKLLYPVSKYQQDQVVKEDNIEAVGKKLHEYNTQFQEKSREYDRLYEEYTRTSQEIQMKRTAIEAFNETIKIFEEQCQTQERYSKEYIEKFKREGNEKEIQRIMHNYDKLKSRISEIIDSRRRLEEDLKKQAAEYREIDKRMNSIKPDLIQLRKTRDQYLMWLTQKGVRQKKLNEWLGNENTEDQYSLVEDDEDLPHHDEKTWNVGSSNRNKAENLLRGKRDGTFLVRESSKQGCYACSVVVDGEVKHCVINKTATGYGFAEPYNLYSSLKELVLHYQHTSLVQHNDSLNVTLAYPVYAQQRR

| SMILES | IC50 [nM] | T47D pAKT S473 HTRF IC50 (H1047R): T47D (H1047R) selectivity over SKBR3 (WT) |
| --- | --- | --- |
| Cc1cc([C@H](C)Nc2ccccc2C(=O)O)c2nc(N3CCC(C)(C)CC3)cc(=O)n2c1 [Compound 362] | > 2000 | C (C denotes ≤5-fold) |
| Cc1cc(C(C)Nc2ccccc2C(=O)O)c2nc(N3CC(Cl)C3)cc(=O)n2c1 (centres unmarked) [Compound 363] | 100 to 500 | A (A denotes >20-fold) |
| Cc1cc([C@@H](C)Nc2ccccc2C(=O)O)c2nc(N3CC(Cl)C3)cc(=O)n2c1 [Compound 364] | < 100 | A (A denotes >20-fold) |
| Cc1cc([C@H](C)Nc2ccccc2C(=O)O)c2nc(N3CC(Cl)C3)cc(=O)n2c1 [Compound 365] | > 2000 | C (C denotes ≤5-fold) |
| Cc1cc(C(C)Nc2ccccc2C(=O)O)c2nc(Nc3ccc(C(=O)O)cc3)cc(=O)n2c1 (centres unmarked) [Compound 369] | > 2000 | C (C denotes ≤5-fold) |
| Cc1cc(C(C)Nc2ccccc2C(=O)O)c2nc(N3CCO[C@H](C)C3)cc(=O)n2c1 (some centres unmarked) [Compound 372] | 100 to 500 | B (B denotes 20-fold≥value>5-fold) |
| Cc1cc([C@H](C)Nc2ccccc2C(=O)O)c2nc(N3CCO[C@H](C)C3)cc(=O)n2c1 [Compound 374] | < 100 | A (A denotes >20-fold) |
| Cc1cc([C@@H](C)Nc2cnncc2C(=O)O)c2nc(N3CCOCC3)cc(=O)n2c1 [Compound 375] | > 2000 | C (C denotes ≤5-fold) |
| Cc1cc([C@H](C)Nc2cnncc2C(=O)O)c2nc(N3CCOCC3)cc(=O)n2c1 [Compound 376] | > 2000 | C (C denotes ≤5-fold) |
| Cc1cc([C@@H](C)Nc2ccnnc2C(=O)O)c2nc(N3CCOCC3)cc(=O)n2c1 [Compound 377] | > 2000 | C (C denotes ≤5-fold) |
| Cc1cc([C@H](C)Nc2ccnnc2C(=O)O)c2nc(N3CCOCC3)cc(=O)n2c1 [Compound 378] | > 2000 | C (C denotes ≤5-fold) |
| Cc1cc(C(C)Nc2c(C(=O)O)cnn2C)c2nc(N3CCOCC3)cc(=O)n2c1 (centres unmarked) [Compound 379] | > 2000 | C (C denotes ≤5-fold) |
| Cc1cc(C(C)Nc2ccccc2C(=O)O)c2nc(-c3cc[nH]c(=O)c3)cc(=O)n2c1 (centres unmarked) [Compound 380] | > 2000 | C (C denotes ≤5-fold) |
| Cc1cc([C@@H](C)Nc2c(C(=O)O)cnn2C)c2nc(N3CCOCC3)cc(=O)n2c1 [Compound 390] | > 2000 | C (C denotes ≤5-fold) |
| Cc1cc([C@@H](C)Nc2ccccc2C(=O)O)c2nc(N3CCN(C)CC3)cc(=O)n2c1 [Compound 394] | > 2000 | C (C denotes ≤5-fold) |
| Cc1cc([C@H](C)Nc2ccccc2C(=O)O)c2nc(N3Cc4ccccc4C3)cc(=O)n2c1 [Compound 403] | > 2000 | C (C denotes ≤5-fold) |
| Cc1cc(C(C)Nc2ccccc2C(=O)O)c2nc(-c3cccnc3)cc(=O)n2c1 (centres unmarked) [Compound 416, 2-((1-(7-methyl-4-oxo-2-(pyridin-3-yl)-4H-pyrido[1,2-a]pyrimidin-9-yl)ethyl)amino)benzoic acid trifluoroacetate] | 100 to 500 | A (A denotes >20-fold) |
| Cc1cc([C@H](C)Nc2ccccc2C(=O)O)c2nc(-c3ccccc3)cc(=O)n2c1 [Compound 423] | – | C (C denotes ≤5-fold) |
| Cc1cc([C@H](C)Nc2ccccc2C(=O)O)c2nc(N3CCC(C)(C)CC3)cc(=O)n2c1 [Compound 432] | – | C (C denotes ≤5-fold) |
| Cc1cc(C(C)Nc2ccccc2C(=O)O)c2nc(N3CCC(NS(C)(=O)=O)CC3)cc(=O)n2c1 (centres unmarked) [Compound 433] | – | C (C denotes ≤5-fold) |
| Cc1cc(C(C)Nc2ccccc2C(=O)O)c2nc(N3CCC(NS(C)(=O)=O)CC3)cc(=O)n2c1 (centres unmarked) [Compound 434] | – | C (C denotes ≤5-fold) |

| SMILES | IC50 [nM] | T47D pAKT S473 HTRF IC50 (H1047R): T47D (H1047R) selectivity over SKBR3 (WT) |
| --- | --- | --- |
| Cc1cc(C(C)Nc2ccccc2C(N)=O)c2nc(-c3ccncc3)cc(=O)n2c1 (centres unmarked) [Compound 438] | > 2000 | C (C denotes ≤5-fold) |
| Cc1cc([C@@H](C)Nc2ccccc2C(=O)O)c2nc(N3CC[Si](C)(C)CC3)cc(=O)n2c1 [Compound 446] | > 2000 | C (C denotes ≤5-fold) |
| Cc1cc(C(C)Nc2ccccc2C(=O)O)c2nc(-c3ccc4c(c3)c(N(C)C)nn4C)cc(=O)n2c1 (centres unmarked) [Compound 457] | < 100 | A (A denotes >20-fold) |
| Cc1cc(C(C)Nc2ccccc2C(=O)O)c2nc(-c3ccnnc3)cc(=O)n2c1 (centres unmarked) [Compound 460] | 500 to 2000 | B (B denotes 20-fold≥value>5-fold) |
| Cc1cc([C@@H](C)Nc2ccccc2C(=O)O)c2nc(-c3cc[nH]c(=O)c3)cc(=O)n2c1 [Compound 461] | > 2000 | C (C denotes ≤5-fold) |
| Cc1cc([C@H](C)Nc2ccccc2C(=O)O)c2nc(-c3cc[nH]c(=O)c3)cc(=O)n2c1 [Compound 462] | > 2000 | C (C denotes ≤5-fold) |
| Cc1cc(C(C)Nc2ccccc2C(=O)O)c2nc(-c3ccc4c(c3)NC(CO)N4)cc(=O)n2c1 (centres unmarked) [Compound 466] | > 2000 | C (C denotes ≤5-fold) |
| Cc1cc(C(C)Nc2ccccc2C(=O)O)c2nc(N3CCN(c4ccncc4)CC3)cc(=O)n2c1 (centres unmarked) [Compound 467] | > 2000 | C (C denotes ≤5-fold) |
| Cc1cc(C(C)Nc2ccccc2C(=O)O)c2nc(N3CCC4(CC3)COC4)cc(=O)n2c1 (centres unmarked) [Compound 471] | 500 to 2000 | B (B denotes 20-fold≥value>5-fold) |
| Cc1cc(C(C)Nc2ccccc2C(=O)O)c2nc(N3CCC(C)(O)CC3)cc(=O)n2c1 (centres unmarked) [Compound 473] | > 2000 | C (C denotes ≤5-fold) |
| Cc1cc([C@H](C)Nc2ccccc2C(=O)O)c2nc(-c3ccc4c(c3)CC(=O)N4)cc(=O)n2c1 [Compound 478] | 100 to 500 | A (A denotes >20-fold) |
| Cc1cc([C@@H](C)Nc2ccccc2C(=O)O)c2cc(-c3ccncn3)cc(=O)n2c1 [Compound 481] | > 2000 | C (C denotes ≤5-fold) |
| Cc1cc([C@H](C)Nc2ccccc2C(=O)O)c2cc(-c3ccncn3)cc(=O)n2c1 [Compound 482] | 500 to 2000 | B (B denotes 20-fold≥value>5-fold) |
| Cc1cc([C@@H](C)Nc2ccccc2C(=O)O)c2cc(-c3ccnnc3)cc(=O)n2c1 [Compound 483] | 500 to 2000 | B (B denotes 20-fold≥value>5-fold) |
| Cc1cc([C@H](C)Nc2ccccc2C(=O)O)c2cc(-c3ccnnc3)cc(=O)n2c1 [Compound 484] | > 2000 | C (C denotes ≤5-fold) |
| CONC(=O)c1ccc(-c2cc(=O)n3cc(C)cc([C@@H](C)Nc4ccccc4C(=O)O)c3n2)cc1 [Compound 485] | > 2000 | C (C denotes ≤5-fold) |
| CONC(=O)c1ccc(-c2cc(=O)n3cc(C)cc([C@H](C)Nc4ccccc4C(=O)O)c3n2)cc1 [Compound 486] | 100 to 500 | A (A denotes >20-fold) |
| Cc1cc(C(C)Nc2ccccc2C(=O)O)c2nc(-c3ccc(C(=O)NO)cc3)cc(=O)n2c1 (centres unmarked) [Compound 487] | > 2000 | C (C denotes ≤5-fold) |
| Cc1cc([C@@H](C)Nc2ccccc2C(=O)O)c2nc(-c3ccc4nc(CO)[nH]c4c3)cc(=O)n2c1 [Compound 488] | > 2000 | C (C denotes ≤5-fold) |
| Cc1cc([C@H](C)Nc2ccccc2C(=O)O)c2nc(-c3ccc4nc(CO)[nH]c4c3)cc(=O)n2c1 [Compound 489] | > 2000 | C (C denotes ≤5-fold) |
| Cc1cc(C(C)Nc2ccccc2C(=O)O)c2nc(N3CCC4(CC3)CC(=O)N4)cc(=O)n2c1 (centres unmarked) [Compound 490] | > 2000 | C (C denotes ≤5-fold) |

— patent US20260132129A1 (Genesis Therapeutics, Inc., priority 2022, published 2026)
